Where “and” joins values, the source holds several entries; their conditions need not be identical. Equal values may be shown once.
What was measured:
[1] = instrument: DT, single field
[2] = instrument: DT, single field, calibrated with Agilent tune mix (Agilent)
[3] = instrument: TW, calibrated with phosphatidylcholines (ESI+) and phosphatidylethanolamines (ESI-)
[4] = instrument: DT, stepped-field
[5] = [M+Na]+; instrument: DT; stepped-field

## CCCCCCCCCCCCCCCCCCCC(=O)O[C@@H](CO)COC(=O)CCCCCCCCCCC [DG(32:0)]
[1]; [M+NH4]+
  collision cross section (N2): 255.58 Å²

## CCCCC/C=C\C/C=C\CCCCCCCC(=O)O[C@@H](CO)COC(=O)CCCCCCCCCCCCC [DG(32:2)]
[1]; [M+NH4]+
  collision cross section (N2): 253.01 Å²

## CCCCC/C=C\C/C=C\CCCCCCCCCCCC(=O)O[C@@H](CO)COC(=O)CCCCCCCCCCCCC [DG(36:2)]
[1]; [M+NH4]+
  collision cross section (N2): 266.09 Å²

## CC/C=C\C/C=C\C/C=C\C/C=C\C/C=C\C/C=C\CCC(=O)O[C@@H](CO)COC(=O)CCCCCCC/C=C\CCCC [DG(36:7)]
[1]; [M+NH4]+
  collision cross section (N2): 252.3 Å²

## CC/C=C\C/C=C\C/C=C\C/C=C\C/C=C\CCCC(=O)O[C@@H](CO)COC(=O)CCCCCCC/C=C\C/C=C\CCCC [DG(37:7)]
[1]; [M+NH4]+
  collision cross section (N2): 256.98 Å²

## CCCCC/C=C\C/C=C\C/C=C\C/C=C\CCCCCC(=O)O[C@@H](CO)COC(=O)CCCC/C=C\C/C=C\C/C=C\CCCCC [DG(40:7)]
[1]; [M+NH4]+
  collision cross section (N2): 266.8 Å² and 270.46 Å² and 267.84 Å²

## CCCCCCCCCCCCCCCCCCCCCCC=CCC(=O)OC[C@H](CO)OC(=O)CC=CCCCCCCCCCCCCCCCCCCCCCC [DG(52:2)]
[1]; [M+NH4]+
  collision cross section (N2): 319.62 Å²

## CCCCCCCCCCCCCCCCCCC(=O)O[C@H](COC(=O)CCCCCCCCCCC)COP(=O)([O-])OCC[N+](C)(C)C [PC(31:0)]
[1]; [M+H]+
  collision cross section (N2): 278.69 Å²

## CCC/C=C\C/C=C\CCCCCCCCCC(=O)O[C@H](COC(=O)CCCCCCCCCCCCC)COP(=O)([O-])OCC[N+](C)(C)C [PC(32:2)]
[2]; [M+H]+
  collision cross section (N2): 276.8 Å²
[3]; [M+H]+
  collision cross section (N2): 274 Å²
[4]; [M+K]+
  collision cross section (N2): 289.2 Å²

## CCCCCCCCCCCCCCCCCCCCC(=O)O[C@H](COC(=O)CCCCCCCCCCC)COP(=O)([O-])OCC[N+](C)(C)C [PC(33:0)]
[1]; [M+Na]+
  collision cross section (N2): 284.2 Å²

## CCCC/C=C\CCCCCCCC(=O)OC[C@H](COP(=O)([O-])OCC[N+](C)(C)C)OC(=O)CCCCCCCCCCCCCCCCCC [PC(33:1)]
[1]; [M+H]+
  collision cross section (N2): 281.49 Å²
[1]; [M+Na]+
  collision cross section (N2): 283.22 Å²

## CCCCCCCCC/C=C\CCCCCCCC(=O)O[C@H](COC(=O)CCCCCCCCCCCC)COP(=O)(O)OCCN [PE(32:1)]
[2]; [M+H]+
  collision cross section (N2): 267.2 Å²
[2]; [M+Na]+
  collision cross section (N2): 272 Å²
[2]; [M-H]-
  collision cross section (N2): 256.6 Å²
[4]; [M+Na]+
  collision cross section (N2): 274.1 Å²

## CCCCCCCCCC/C=C\CCCCCCCCCC(=O)O[C@H](COC(=O)CCCCCCCCCCC)COP(=O)(O)OCCN [PE(34:1)]
[2]; [M+H]+
  collision cross section (N2): 274.7 Å²
[2]; [M+Na]+
  collision cross section (N2): 281.2 Å²
[2]; [M-H]-
  collision cross section (N2): 263.5 Å²
[3]; [M+H]+
  collision cross section (N2): 272.8 Å²
[3]; [M-H]-
  collision cross section (N2): 262.8 Å²
[4]; [M+Na]+
  collision cross section (N2): 281.3 Å²

## CCCCC/C=C\C/C=C\CCCCCCCCCC(=O)O[C@H](COC(=O)CCCCCCCCCCCCC)COP(=O)(O)OCCN [PE(34:2)]
[2]; [M+H]+
  collision cross section (N2): 272.7 Å²
[2]; [M+Na]+
  collision cross section (N2): 277.6 Å²
[2]; [M-H]-
  collision cross section (N2): 262 Å²
[3]; [M+H]+
  collision cross section (N2): 269.9 Å²
[4]; [M+Na]+
  collision cross section (N2): 278.3 Å²

## CCCC/C=C\CCCCCCCC(=O)OC[C@H](COP(=O)(O)OCCN)OC(=O)CCCCCCCCC/C=C\C/C=C\CCCCC [PE(34:3)]
[2]; [M+H]+
  collision cross section (N2): 270.9 Å²
[2]; [M-H]-
  collision cross section (N2): 260.2 Å²
[4]; [M+Na]+
  collision cross section (N2): 276.1 Å²

## CCCCC/C=C\C/C=C\CCCCCCCCCCCC(=O)O[C@H](COC(=O)CCCCCCCCCCCC)COP(=O)(O)OCCN [PE(35:2)]
[2]; [M+H]+
  collision cross section (N2): 275 Å²
[2]; [M-H]-
  collision cross section (N2): 264.9 Å²
[4]; [M+K]+
  collision cross section (N2): 282.5 Å²
[4]; [M+Na]+
  collision cross section (N2): 281.3 Å²

## CCCCC/C=C\C/C=C\C/C=C\CCCCC(=O)OC[C@H](COP(=O)(O)OCCN)OC(=O)CCCCCCCCCCC/C=C\C/C=C\CCCCC [PE(40:5)]
[2]; [M+H]+
  collision cross section (N2): 287.1 Å²
[2]; [M-H]-
  collision cross section (N2): 277.5 Å²
[3]; [M+H]+
  collision cross section (N2): 284.8 Å²
[3]; [M-H]-
  collision cross section (N2): 276.2 Å²
[4]; [M+Na]+
  collision cross section (N2): 294.8 Å²

## CC/C=C\C/C=C\C/C=C\C/C=C\C/C=C\CCCC(=O)OC[C@H](COP(=O)(O)OCCN)OC(=O)CCC/C=C\C/C=C\C/C=C\C/C=C\CCCCC [PE(40:9)]
[2]; [M+Na]+
  collision cross section (N2): 283.1 Å²
[4]; [M+Na]+
  collision cross section (N2): 286.6 Å²

## CC/C=C\C/C=C\C/C=C\C/C=C\C/C=C\C/C=C\CCC(=O)O[C@H](COC(=O)CCCCCCCCC/C=C\C/C=C\CCCCC)COP(=O)(O)OCCN [PE(42:8)]
[3]; [M+H]+
  collision cross section (N2): 290 Å²
[4]; [M+Na]+
  collision cross section (N2): 297.3 Å²

## CC/C=C\C/C=C\C/C=C\C/C=C\C/C=C\C/C=C\CCC(=O)OC[C@H](COP(=O)(O)OC[C@H](N)C(=O)O)OC(=O)CCCCC/C=C\C/C=C\C/C=C\C/C=C\CCCCC [PS(44:10)]
[5]
  collision cross section (N2): 296.88 Å²
[4]; [M+Na]+
  collision cross section (N2): 303.5 Å²

## CCCCCCCCCCCCC=CC[C@@H](O)[C@H](COP(=O)([O-])OCC[N+](C)(C)C)NC(=O)CC=CCCCCCCCCCCCCCC [SM(36:2)]
[2]; [M+H]+
  collision cross section (N2): 286.1 Å²
[4]; [M+Na]+
  collision cross section (N2): 290.9 Å²

## CCCCCCCCCCCCC=CC[C@@H](O)[C@H](COP(=O)([O-])OCC[N+](C)(C)C)NC(=O)CC=CCCCCCCCCCCCCCCCCCCC [SM(41:2)]
[4]; [M+Na]+
  collision cross section (N2): 303.9 Å²

## CCCCCCCCCCCCC=CC[C@@H](O)[C@H](COP(=O)([O-])OCC[N+](C)(C)C)NC(=O)CC=CCC=CCCCCCCCCCCCCCCCCC [SM(42:3)]
[2]; [M+HCOO]-
  collision cross section (N2): 299.5 Å²
[2]; [M+H]+
  collision cross section (N2): 302 Å²
[4]; [M+Na]+
  collision cross section (N2): 305.6 Å²

## CCCCCCCCCCCCC=CC[C@@H](O)[C@H](COP(=O)([O-])OCC[N+](C)(C)C)NC(=O)CC=CCCCCCCCCCCCCCCCCCCCCC [SM(43:2)]
[4]; [M+Na]+
  collision cross section (N2): 311.5 Å²

## CCCCCCCCCCCCC=CC[C@@H](O)[C@H](COP(=O)([O-])OCC[N+](C)(C)C)NC(=O)CC=CCC=CCCCCCCCCCCCCCCCCCC [SM(43:3)]
[4]; [M+Na]+
  collision cross section (N2): 309.6 Å²

## CCCCCCCCCCCCC=CC[C@@H](O)[C@H](COP(=O)([O-])OCC[N+](C)(C)C)NC(=O)CCCCCCCCCCCCCCCCCCCCCCCCCC [SM(45:1)]
[1]; [M+H]+
  collision cross section (N2): 315.31 Å²

## OC[C@@H](O)[C@@H](O)[C@H](O)[C@@H](O)CO [Sorbitol]
[4]; [M+Na]+
  collision cross section (N2): 139.4 Å²

## CCCC[N+](CCCC)(CCCC)CCCC [TAA4]
[4]; [M]+
  collision cross section (N2): 166.6 Å²

## CCCCC[N+](CCCCC)(CCCCC)CCCCC [TAA5]
[4]; [M]+
  collision cross section (N2): 190.1 Å²

## CCCCCCCCCCCC[N+](CCCCCCCCCCCC)(CCCCCCCCCCCC)CCCCCCCCCCCC [TAA12]
[4]; [M]+
  collision cross section (N2): 319 Å²

## C(OC(=O)CCCCCCCCCCCCC)[C@]([H])(OC(CCCCCCCCCCCCC)=O)COC(CCCCCCCCCCCCC)=O [TG(42:0)]
[1]; [M+Na]+
  collision cross section (N2): 289.67 Å² and 290.31 Å²

## CCCC/C=C\CCCCCCCC(=O)O[C@@H](COC(=O)CCCCCCC/C=C\CCCCC)COC(=O)CCCCCCCCCCCC [TG(42:2)]
[1]; [M+NH4]+
  collision cross section (N2): 286.83 Å² and 289.71 Å²
[1]; [M+Na]+
  collision cross section (N2): 285.72 Å² and 288.76 Å²

## CCCCCCCCCCCCCCCCCC(=O)OC[C@@H](COC(=O)CCCCCCCCCCC)OC(=O)CCCCCCCCCCCCCCCCC [TG(48:0)]
[1]; [M+NH4]+
  collision cross section (N2): 310.54 Å² and 314.67 Å² and 312.34 Å²

## CCCCCCCCCCCCCCCCCCC(=O)OC[C@@H](COC(=O)CCCCCCCCCCCC)OC(=O)CCCCCCCCCCCCCCCCCC [TG(51:0)]
[1]; [M+NH4]+
  collision cross section (N2): 324.83 Å² and 327.28 Å²

## CC/C=C\C/C=C\C/C=C\C/C=C\C/C=C\C/C=C\CCC(=O)OC[C@@H](COC(=O)CCCCCCCCCCC)OC(=O)CCCCCCC/C=C\CCCCCCCC [TG(52:7)]
[1]; [M+NH4]+
  collision cross section (N2): 313.4 Å²

## CC(C)[C@H](N)C(=O)N[C@@H](CCC(=O)O)C(=O)N[C@@H](CC(=O)O)C(=O)N[C@H](C(=O)N[C@@H](CC(=O)O)C(=O)N[C@@H](CCCNC(=N)N)C(=O)O)C(C)C [VEDVDR]
[4]; [M+H]+
  collision cross section (N2): 256.6 Å²

## CCC(C)[C@H](NC(=O)CNC(=O)[C@H](CC(C)C)NC(=O)[C@@H](N)C(C)C)C(=O)N[C@@H](CC(=O)O)C(=O)NCC(=O)NCC(=O)N[C@@H](CCC(=O)O)C(=O)NCC(=O)N[C@@H](CCCCN)C(=O)O (stereo partly specified) [VLGIDGGEGK]
[4]; [M+H]+
  collision cross section (N2): 291.2 Å²

## CSCC[C@H](NC(=O)[C@@H](N)Cc1c[nH]c2ccccc12)C(=O)NCC(=O)N[C@@H](CCCCN)C(=O)O [WMGK]
[4]; [M+H]+
  collision cross section (N2): 220.1 Å²

## CCC(C)[C@H](NC(=O)[C@H](CCC(=O)O)NC(=O)[C@H](Cc1ccc(O)cc1)NC(=O)[C@H](CC(C)C)NC(=O)[C@@H](N)Cc1ccc(O)cc1)C(=O)N[C@@H](C)C(=O)N[C@@H](CCCNC(=N)N)C(=O)O (stereo partly specified) [YLYEIAR]
[4]; [M+H]+
  collision cross section (N2): 305 Å²

## CC(C)[C@H](NC(=O)[C@@H](N)Cc1ccc(O)cc1)C(=O)N[C@@H](CCCNC(=N)N)C(=O)O [YVR]
[4]; [M+H]+
  collision cross section (N2): 207 Å²
